Laboratory results from ChEMBL document CHEMBL1201862, “PubChem BioAssay data set” (2004).
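Protocol summary: plate cells (96-well), add compound at 5 concentrations, incubate 48 h, interpolate endpoints linearly. Here, GI50 denotes the concentration required for 50% inhibition of growth.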 The source made the active and inactive calls. Cut-off read from the data, not from the text of the source: active = GI50 up to about 1.1 µM and inactive = higher.

Key:
Assay in all cases: NCI tumour cell line growth inhibition, 48 h
[1] = system: HOP-18
[2] = system: HL-60
[3] = system: SK-MEL-5
[4] = system: NCI-H23
[5] = system: DMS-273
[6] = system: SF-295
[7] = system: SF-268
[8] = system: LXFL 529
[9] = system: UACC-257
[10] = system: OVCAR-5
[11] = system: NCI-H522
[12] = system: HCT-15
[13] = system: SK-OV-3
[14] = system: SNB-75
[15] = system: A549
[16] = system: OVCAR-4
[17] = system: 786-0
[18] = system: TK-10
[19] = system: SNB-78
[20] = system: DMS-114
[21] = system: DLD-1
[22] = system: MOLT-4
[23] = system: A498
[24] = system: NCI-H226
[25] = system: HCT-116
[26] = system: NCI-H460
[27] = system: SW-620
[28] = system: SR
[29] = system: HT-29
[30] = system: RPMI-8226
[31] = system: ACHN
[32] = system: CAKI-1
[33] = system: CCRF-CEM
[34] = system: LOX IMVI
[35] = system: SNB-19
[36] = system: XF498
[37] = system: KM12
[38] = system: U-251
[39] = system: HOP-92
[40] = system: KM-20L2
[41] = system: RXF 631
[42] = system: SK-MEL-28
[43] = system: SK-MEL-2
[44] = system: RXF 393
[45] = system: COLO 205
[46] = system: K562
[47] = system: IGROV-1
[48] = system: SF-539
[49] = system: OVCAR-8
[50] = system: UACC-62
[51] = system: OVCAR-3
[52] = system: UO-31
[53] = system: EKVX
[54] = system: M14
[55] = system: SN12C
[56] = system: Malme-3M
[57] = system: M19-MEL

Measured: GI50

N#CC1=C(c2ccccc2)NN(Cc2ccccc2)C(c2ccc(Cl)cc2)CC1=O (configuration not stated)
inactive: [1] 17 µM | [2] 28.2 µM | [3] 15.6 µM | [4] 20.1 µM | [5] 21.4 µM | [6] 27.5 µM | [7] 29.3 µM | [8] 20.4 µM | [9] 37.8 µM | [10] 34 µM | [11] 12.7 µM | [13] > 10 µM | [14] 18.3 µM | [15] 18.2 µM | [16] 20.9 µM | [17] 24.3 µM | [18] 42.8 µM | [19] 99.3 µM | [20] 32.3 µM | [21] 15.7 µM | [22] 4.91 µM | [23] 24.8 µM | [24] 57.8 µM | [25] 18.7 µM | [26] 18 µM | [27] 20.2 µM | [28] 20.6 µM | [29] 17.3 µM | [30] 18.8 µM | [31] 23.3 µM | [32] 30.1 µM | [33] 7.89 µM | [34] 18 µM | [35] 22.5 µM | [36] 15 µM | [37] 25.8 µM | [38] 17.3 µM | [39] 16.3 µM | [40] 20.8 µM | [41] 28.1 µM | [42] 39.8 µM | [43] 25.8 µM | [44] 22.3 µM | [45] 36.1 µM
22.9 µM: [12]

Cc1cc2c(=O)c3ccccc3[nH]c2c(C(N)=O)c1C
> 100 µM: [12]
inactive: [1] > 100 µM | [3] > 100 µM | [4] > 100 µM | [6] > 100 µM | [46] > 100 µM | [7] > 100 µM | [8] > 100 µM | [9] > 100 µM | [10] > 100 µM | [47] > 100 µM | [11] > 100 µM | [48] > 100 µM | [13] > 100 µM | [49] > 100 µM | [50] > 100 µM | [14] > 100 µM | [15] > 100 µM | [16] > 100 µM | [17] > 100 µM | [18] > 100 µM | [19] > 100 µM | [20] > 100 µM | [21] > 100 µM | [51] > 100 µM | [22] > 100 µM | [52] > 100 µM | [24] > 100 µM | [25] > 100 µM | [26] > 100 µM | [27] > 100 µM | [29] > 100 µM | [30] > 100 µM | [31] > 100 µM | [53] > 100 µM | [54] > 100 µM | [32] > 100 µM | [33] > 100 µM | [34] > 100 µM | [35] > 100 µM | [36] > 100 µM | [55] > 100 µM | [56] > 100 µM | [37] > 100 µM | [38] > 100 µM | [40] > 100 µM | [41] > 100 µM | [42] > 100 µM | [43] > 100 µM | [57] > 100 µM | [44] > 100 µM | [45] > 100 µM
